Measurements: patent US20230382895A1, “CRYSTALLINE FORM III OF MELANOCORTIN RECEPTOR AGONIST COMPOUND AND PREPARATION METHOD THEREFOR” (LG CHEM, LTD., priority 2020, published 2023)
“Also recorded” adds a separate entry of the source. Where a name gives a salt, the structure may show the parent alone.

Experiment: Stability assessment by HPLC after storage under accelerated (40° C., 75% RH, open) or harsh (80° C., sealed) condition
Type: physicochemical
Conditions: for Stability (HPLC), Open AOC: open state, accelerated condition (40° C., 75% RH); for Stability (HPLC), Closed STR: sealed state, harsh condition, oven at 80° C.
Experimental: About 10-30 mg of the sample was stored for 4 weeks in an open state under the accelerated condition (40° C., 75% RH) or in a sealed state under the harsh condition in an oven at 80° C. [table]

- Stability (HPLC), Initial (Initial, before storage, in % (unit assumed)): 99.68
- Stability (HPLC), Open AOC (Week 2, in % (unit assumed)): 89.27
- Stability (HPLC), Closed STR (Week 2, in % (unit assumed)): 99.11
- Stability (HPLC), Open AOC (Week 4, in % (unit assumed)): 99.26
- Stability (HPLC), Closed STR (Week 4, in % (unit assumed)): 98.76
SMILES: CC(C)C(=O)N([C@H]1C[C@@H](C(=O)N2CCOCC2)N(C(=O)[C@@H]2CN(C(C)(C)C)C[C@H]2c2ccc(Cl)cc2)C1)[C@H]1CC[C@@H](C)CC1 [Example 1, Is7-((3S,5S)-1-((3S,4R)-1-(tert-butyl)-4-(4-chlorophenyl)pyrrolidine-3-carbonyl)-5-(morpholine-4-carbonyl)pyrrolidin-3-yl)-N-((is, 4R)-4-methylcyclohexyl) isobutyramide hydrochloride]
- Chemical stability for 4 weeks (4 weeks, accelerated condition (40° C., 75% RH) and harsh condition (80° C.), listed as crystalline form III, hydrochloride): showed chemical stability; also recorded: exhibited chemical stability
